Assay results: ChEMBL document CHEMBL1201862, “PubChem BioAssay data set” (2004)
Activity calls are given as the source filed them.

Columns and labels:
Cytochrome P450 3A4 = Cytochrome P450 3A4 (Homo sapiens, UniProt P08684); settings: Potency;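 also: confirmatory qHTS run detecting inhibitors and substrates of CYP3A4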
[1] = cytotoxicity in HEK-293T cells, dose response, cytotoxicity control for TCR NF-kB inhibitor project, luminescence, T-cell screen hits (AID 489026); type: functional, cell-based;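 also: cells exposed to compound about 14 hours before the viability readout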
[2] = target: T1, Replicative DNA helicase DnaB (Mycobacterium tuberculosis, UniProt P9WMR3); experiment: DnaB intein splicing inhibitors, dose response, biochemical, cell-free fluorescence (AID 449749); type: functional
T1 sequence (P9WMR3 whole entry): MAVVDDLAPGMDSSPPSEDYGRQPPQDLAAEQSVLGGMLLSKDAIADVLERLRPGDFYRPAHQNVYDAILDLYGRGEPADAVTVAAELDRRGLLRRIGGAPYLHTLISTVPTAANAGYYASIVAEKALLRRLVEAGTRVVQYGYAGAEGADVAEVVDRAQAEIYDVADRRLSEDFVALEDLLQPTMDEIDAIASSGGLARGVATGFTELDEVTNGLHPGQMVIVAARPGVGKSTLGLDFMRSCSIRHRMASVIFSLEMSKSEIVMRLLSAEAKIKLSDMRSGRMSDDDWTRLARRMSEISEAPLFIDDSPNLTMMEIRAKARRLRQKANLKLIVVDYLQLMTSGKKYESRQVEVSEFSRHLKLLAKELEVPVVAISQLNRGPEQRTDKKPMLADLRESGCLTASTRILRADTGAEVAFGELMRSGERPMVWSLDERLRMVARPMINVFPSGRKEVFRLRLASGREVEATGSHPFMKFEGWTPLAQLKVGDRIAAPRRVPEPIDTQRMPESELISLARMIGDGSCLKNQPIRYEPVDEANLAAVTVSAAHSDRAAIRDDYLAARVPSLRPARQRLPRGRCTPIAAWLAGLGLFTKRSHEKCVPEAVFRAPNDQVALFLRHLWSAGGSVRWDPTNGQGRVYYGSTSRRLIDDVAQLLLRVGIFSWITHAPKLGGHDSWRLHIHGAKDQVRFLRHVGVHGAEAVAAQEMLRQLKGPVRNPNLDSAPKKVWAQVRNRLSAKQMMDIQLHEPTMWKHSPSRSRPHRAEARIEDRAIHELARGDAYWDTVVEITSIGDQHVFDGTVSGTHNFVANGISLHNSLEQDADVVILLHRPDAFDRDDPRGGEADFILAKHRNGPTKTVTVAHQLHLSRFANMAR

Protein RecA = target: T2, Protein RecA (Mycobacterium tuberculosis, UniProt P9WHJ3); experiment: Fluorescence Cell-Free Homogeneous Dose Retest to Identify Inhibitors of RecA-Intein Splicing Activity. [Related pubchem assays (depositor defined):AID2097, AID2223, AID489010, AID492950]; type: functional
T2 sequence (P9WHJ3 whole entry): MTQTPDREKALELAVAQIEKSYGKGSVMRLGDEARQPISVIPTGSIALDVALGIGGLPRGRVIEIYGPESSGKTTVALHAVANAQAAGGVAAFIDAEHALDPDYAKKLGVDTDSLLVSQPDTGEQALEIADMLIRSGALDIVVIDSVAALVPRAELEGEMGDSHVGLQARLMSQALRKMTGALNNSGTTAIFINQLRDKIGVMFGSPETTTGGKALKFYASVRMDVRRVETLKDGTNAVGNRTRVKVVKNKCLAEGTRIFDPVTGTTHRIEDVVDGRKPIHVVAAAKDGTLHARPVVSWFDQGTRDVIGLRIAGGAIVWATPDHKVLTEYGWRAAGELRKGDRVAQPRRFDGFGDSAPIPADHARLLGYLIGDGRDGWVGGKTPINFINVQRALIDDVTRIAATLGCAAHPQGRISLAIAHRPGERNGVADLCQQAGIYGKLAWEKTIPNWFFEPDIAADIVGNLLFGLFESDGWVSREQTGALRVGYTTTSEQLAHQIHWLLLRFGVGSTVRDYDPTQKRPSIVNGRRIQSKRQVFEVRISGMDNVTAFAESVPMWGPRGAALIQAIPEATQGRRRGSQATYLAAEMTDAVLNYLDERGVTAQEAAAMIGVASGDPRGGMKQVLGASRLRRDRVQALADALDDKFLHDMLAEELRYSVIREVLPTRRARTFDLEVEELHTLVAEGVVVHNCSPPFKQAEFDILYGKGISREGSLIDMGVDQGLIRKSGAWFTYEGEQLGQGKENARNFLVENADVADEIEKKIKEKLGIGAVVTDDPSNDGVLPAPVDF

Large T antigen = Large T antigen (Simian virus 40, UniProt P03070); type: functional, Betapolyomavirus macacae;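 also: Confirmatory-stage PubChem screen for compounds that inhibit SV40 T antigen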
[3] = HEp-2 cell cytotoxicity, dose response, cytotoxicity control for RSV inhibitor project, HTS (AID 2410); type: functional; settings: human respiratory syncytial virus
[4] = Shn3 3'UTR reporter inhibitors, dose response, cell-based, Clone20 osteoblasts, firefly luciferase, cherry-picked (AID 624132); type: functional;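 also: firefly luciferase luminescence from reporter carrying the Shn3 3'UTR in osteoblasts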
[5] = HEK293 cell cytotoxicity, dose response, cytotoxicity control, plate reader, cherry-picked samples (AID 743446); type: functional, cell-based
[6] = MC4R antagonists, dose response, counter-screen for LGR2 antagonist project, cell-based, plate reader, cherry pick (AID 743444); type: functional;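 also: transfected HEK 293 cells stimulated with alpha-MSH peptide; potency of inhibitors of the alpha-MSH evoked signal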
[7] = LGR2 antagonists, dose response, cell-based, HEK293, CRE-luciferase reporter, cherry pick, set 2 (AID 743343); type: functional;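 also: transfected cells were stimulated with diluted bursicon conditioned medium after compound addition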
[8] = HepG2 cell cytotoxicity, dose response, cytotoxicity control, plate reader, cherry-pick, antagonist series (AID 743416); type: functional, cell-based
[9] = A549 cell cytotoxicity, dose response, cytotoxicity control, plate reader, cherry-pick, antagonist series (AID 743412); type: functional, cell-based
[10] = P. falciparum Dd2 growth inhibitors, dose response, SYBR Green, cherry-picked samples (AID 1159567); type: functional, cell-based
[11] = Luminescence Cell-Based Dose Response HTS to Identify Inhibitors of 5'UTR Stem-Loop Driven Prion Protein mRNA Translation in H4 Neuroglioblastoma Cells. [Related pubchem assays: 1827 (Project Summary), 1813 (Primary HTS)]; type: functional
[12] = inhibitors of firefly luciferase expression or activity, dose response, H4 neuroglioma cells, luminescence (AID 1990); type: functional, cell-based
[13] = Luminescence Cell-Based Dose Retest to Confirm Inhibitors of Cancer Stem Cells. [Related pubchem assays (depositor defined):AID2717, AID2721]; type: functional; settings: Homo sapiens
[14] = inhibitors of SNCA 5'UTR-driven reporter translation, confirmation, H4 neuroglioma cells, luminescence (AID 1988); type: functional, cell-based

Cytochrome P450 3A4, sequence (P08684 whole entry): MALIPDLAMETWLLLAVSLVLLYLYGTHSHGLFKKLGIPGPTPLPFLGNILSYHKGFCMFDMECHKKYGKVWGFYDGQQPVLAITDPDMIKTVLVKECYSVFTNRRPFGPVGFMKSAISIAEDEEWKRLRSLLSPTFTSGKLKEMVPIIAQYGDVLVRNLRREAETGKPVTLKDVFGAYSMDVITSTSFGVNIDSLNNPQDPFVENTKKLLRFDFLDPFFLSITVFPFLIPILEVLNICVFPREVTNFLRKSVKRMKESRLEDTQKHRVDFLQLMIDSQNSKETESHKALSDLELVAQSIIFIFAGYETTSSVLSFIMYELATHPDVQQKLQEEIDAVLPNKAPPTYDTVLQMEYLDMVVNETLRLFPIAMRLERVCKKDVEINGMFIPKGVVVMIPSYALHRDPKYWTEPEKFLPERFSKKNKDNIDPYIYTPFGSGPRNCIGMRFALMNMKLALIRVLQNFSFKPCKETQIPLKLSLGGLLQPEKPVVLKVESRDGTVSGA
Large T antigen, sequence (P03070 whole entry): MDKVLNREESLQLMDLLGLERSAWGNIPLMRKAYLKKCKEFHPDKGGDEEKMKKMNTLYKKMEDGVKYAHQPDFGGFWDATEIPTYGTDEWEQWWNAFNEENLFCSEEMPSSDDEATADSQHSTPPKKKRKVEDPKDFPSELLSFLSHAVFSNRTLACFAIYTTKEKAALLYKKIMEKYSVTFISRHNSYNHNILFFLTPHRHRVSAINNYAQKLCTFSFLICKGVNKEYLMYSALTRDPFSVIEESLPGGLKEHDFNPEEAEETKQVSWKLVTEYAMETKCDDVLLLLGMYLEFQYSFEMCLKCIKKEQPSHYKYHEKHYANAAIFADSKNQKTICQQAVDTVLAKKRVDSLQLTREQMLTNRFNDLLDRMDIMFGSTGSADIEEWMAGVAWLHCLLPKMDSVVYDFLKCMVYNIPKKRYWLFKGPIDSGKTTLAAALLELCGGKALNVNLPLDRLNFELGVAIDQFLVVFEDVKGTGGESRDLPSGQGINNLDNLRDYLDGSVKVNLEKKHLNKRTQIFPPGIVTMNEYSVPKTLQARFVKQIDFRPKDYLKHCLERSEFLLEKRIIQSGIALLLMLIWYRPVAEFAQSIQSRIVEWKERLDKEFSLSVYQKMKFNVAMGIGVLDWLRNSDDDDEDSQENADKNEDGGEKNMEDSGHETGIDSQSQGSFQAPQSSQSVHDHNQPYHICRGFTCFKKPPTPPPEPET

CCCCNc1nc(C)nc2c1nc(-c1ccccc1)n2CCCCN(CC)CC
AC50 (Cytochrome P450 3A4): 12.6 µM (inconclusive)

Cc1cccc(N2CCN(C(=O)c3c(-c4ccccc4Cl)noc3C)CC2)c1C
IC50 [1]: > 80 µM (inactive)

Nc1ccc(O)cc1 [4-AMINOPHENOL]
AC50 (Cytochrome P450 3A4): 25.1 µM (inconclusive)
AC50 [2]: > 380 µM (inactive)
EC50 (Protein RecA): > 380 µM (inconclusive)

CCCCN1Cc2c(nc3cc(-c4ccco4)nn3c2O)C1=O
IC50 (Large T antigen): 35.6 µM (active)

COC(=O)c1cn(NC(=O)c2cc([N+](=O)[O-])ccc2F)c(=O)c2ccccc12
IC50 [1]: > 80 µM (inactive)
CC50 [3]: 3.87 µM (active)
AC50 [4]: 2.85 µM (active)

COc1ccc(N2CCN(C(=O)NC3CC(=O)N(c4ccc(OC)cc4)C3)CC2)cc1 (centres undefined)
IC50 (Large T antigen): 43.3 µM (active)

Cc1ccccc1OCCCN1CCC(C(O)(c2ccccc2)c2ccccc2)CC1
AC50 [5]: 16.1 µM (active)
AC50 [6]: 18.5 µM (active)
AC50 [7]: 19.9 µM (active)
AC50 [8]: 22.6 µM (active)
AC50 [9]: 25.7 µM (active)

NC(c1ccccc1)c1csc(NC(=O)Nc2cccc(Cl)c2)n1 (centres undefined)
AC50 [5]: 50.9 µM (active)
AC50 [6]: 36.7 µM (active)
AC50 [7]: 28.8 µM (active)
AC50 [8]: 16.3 µM (active)
AC50 [9]: 21.1 µM (active)

C=CC(C1=CC(=O)C(OC)=CC1=O)c1ccc(O)cc1 (centres undefined) [DALBERGIONE, 4-METHOXY-4'-HYDROXY-]
AC50 (Cytochrome P450 3A4): 25.1 µM (inconclusive)

CCCCCCN(C(=O)CCCCCN1C(=O)NC(c2ccc(-c3ccccc3)cc2)C(C(=O)OCc2ccccc2)=C1C)C(C(=O)NCCCC)c1ccc(OCC(=O)O)c(C(=O)O)c1 (centres undefined)
AC50 (Cytochrome P450 3A4): 15.8 µM (inconclusive)

CO[C@@H]1CN(C)C(=O)c2cc(NC(=O)c3nc4ccccc4s3)ccc2OC[C@@H](C)N(Cc2ccccc2)C[C@H]1C
AC50 [10]: 3.99 µM (active)

CC(=O)N1CC=CC1(CC(C)C)C(=O)NCc1ccc(C)o1 (centres undefined)
AC50 (Cytochrome P450 3A4): 15.8 µM (inconclusive)

COC(=O)Nc1ccc(S(=O)(=O)N2CCCc3ccccc32)cc1
EC50 [11]: 7.32 µM (active)
IC50 [1]: > 80 µM (inactive)
EC50 [12]: 8.02 µM (active)
AC50 [13]: 0.362 µM (active)
EC50 [14]: 0.37 µM (active)
